This passage reports Kd results from ChEMBL document CHEMBL3991601, “The target landscape of clinical kinase drugs” (Science, 2017).

Assay [1] concerns the target Serine/threonine-protein kinase pim-2 (Homo sapiens, UniProt Q9P1W9).
Assay [2] concerns the target Cell division cycle 7-related protein kinase (Homo sapiens, UniProt O00311).
Assay [3] has as its target Eukaryotic peptide chain release factor GTP-binding subunit ERF3B (Homo sapiens, UniProt Q8IYD1).
Assay [4] has as its target T1, Cyclin-dependent kinase-like 5 (Homo sapiens, UniProt O76039).
T1 sequence (O76039 whole entry): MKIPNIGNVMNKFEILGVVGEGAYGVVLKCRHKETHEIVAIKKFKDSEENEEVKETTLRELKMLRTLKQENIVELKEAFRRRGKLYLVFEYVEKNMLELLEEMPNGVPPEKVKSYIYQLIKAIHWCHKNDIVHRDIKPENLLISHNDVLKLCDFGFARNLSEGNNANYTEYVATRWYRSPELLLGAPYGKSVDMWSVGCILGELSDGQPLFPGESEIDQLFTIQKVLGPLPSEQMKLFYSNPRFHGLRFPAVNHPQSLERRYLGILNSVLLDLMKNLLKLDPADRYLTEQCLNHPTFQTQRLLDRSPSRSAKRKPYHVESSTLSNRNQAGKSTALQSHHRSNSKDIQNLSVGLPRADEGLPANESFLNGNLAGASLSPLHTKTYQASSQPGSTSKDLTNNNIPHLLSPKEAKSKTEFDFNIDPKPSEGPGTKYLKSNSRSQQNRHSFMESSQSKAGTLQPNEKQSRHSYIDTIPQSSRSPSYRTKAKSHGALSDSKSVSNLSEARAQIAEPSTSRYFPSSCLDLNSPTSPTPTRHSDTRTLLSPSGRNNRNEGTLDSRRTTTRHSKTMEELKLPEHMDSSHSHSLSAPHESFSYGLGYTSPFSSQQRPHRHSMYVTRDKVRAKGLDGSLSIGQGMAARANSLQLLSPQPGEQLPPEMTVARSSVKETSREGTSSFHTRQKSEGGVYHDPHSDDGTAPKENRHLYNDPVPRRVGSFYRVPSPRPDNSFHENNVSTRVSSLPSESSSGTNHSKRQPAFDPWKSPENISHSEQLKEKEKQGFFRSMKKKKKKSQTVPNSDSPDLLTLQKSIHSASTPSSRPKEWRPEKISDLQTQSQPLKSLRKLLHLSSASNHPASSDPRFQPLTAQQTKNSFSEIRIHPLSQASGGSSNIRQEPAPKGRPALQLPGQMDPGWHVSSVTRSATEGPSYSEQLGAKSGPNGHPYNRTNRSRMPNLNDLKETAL

Assay [5] deals with Serine/threonine-protein kinase ATR (Homo sapiens, UniProt Q13535).
The target in assay [6] is Serine/threonine-protein kinase 38 (Homo sapiens, UniProt Q15208).
Assay [7] has as its target Dual specificity protein kinase CLK4 (Homo sapiens, UniProt Q9HAZ1).
Assay [8] deals with Cyclin-dependent kinase 10 (Homo sapiens, UniProt Q15131).
Assay [9] deals with Uncharacterized aarF domain-containing protein kinase 5 (Homo sapiens, UniProt Q3MIX3).
For assay [10], the target named is Tyrosine-protein kinase Fgr (Homo sapiens, UniProt P09769).
Assay [11] has as its target Serine/threonine-protein kinase 38-like (Homo sapiens, UniProt Q9Y2H1).
Assay [12] has as its target Tyrosine-protein kinase JAK2 (Homo sapiens, UniProt O60674).

The structures appear in SMILES notation. Structures can show the parent of a compound that is named as a salt. The source made the active and inactive calls. On the calls: in the data inactive means no Kd found up to 30 µM.

Chain of Tyrosine-protein kinase Fgr (P09769 whole entry): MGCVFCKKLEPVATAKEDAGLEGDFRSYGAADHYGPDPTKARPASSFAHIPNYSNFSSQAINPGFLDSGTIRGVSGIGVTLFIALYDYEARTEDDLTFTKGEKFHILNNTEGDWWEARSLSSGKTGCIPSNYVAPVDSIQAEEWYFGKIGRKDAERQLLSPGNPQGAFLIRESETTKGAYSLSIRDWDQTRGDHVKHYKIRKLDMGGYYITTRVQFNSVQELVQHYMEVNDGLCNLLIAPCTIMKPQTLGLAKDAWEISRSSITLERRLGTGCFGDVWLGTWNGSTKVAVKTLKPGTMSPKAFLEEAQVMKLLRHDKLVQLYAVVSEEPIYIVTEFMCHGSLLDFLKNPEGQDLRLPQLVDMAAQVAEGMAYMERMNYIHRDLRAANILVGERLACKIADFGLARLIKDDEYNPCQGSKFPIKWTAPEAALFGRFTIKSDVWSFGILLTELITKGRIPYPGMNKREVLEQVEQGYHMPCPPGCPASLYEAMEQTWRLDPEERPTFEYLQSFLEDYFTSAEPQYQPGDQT
Chain of Cyclin-dependent kinase 10 (Q15131 whole entry, the tested form may be a part): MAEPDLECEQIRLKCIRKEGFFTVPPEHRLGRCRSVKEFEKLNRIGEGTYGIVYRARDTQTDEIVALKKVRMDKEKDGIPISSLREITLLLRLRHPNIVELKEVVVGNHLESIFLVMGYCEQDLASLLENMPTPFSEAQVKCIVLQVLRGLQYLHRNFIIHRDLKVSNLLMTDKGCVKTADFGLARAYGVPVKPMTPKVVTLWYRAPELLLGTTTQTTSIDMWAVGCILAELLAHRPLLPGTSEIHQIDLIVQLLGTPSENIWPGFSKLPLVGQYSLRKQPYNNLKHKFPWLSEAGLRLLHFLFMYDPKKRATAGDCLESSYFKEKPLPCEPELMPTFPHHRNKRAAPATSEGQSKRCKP
Chain of Serine/threonine-protein kinase pim-2 (Q9P1W9 whole entry): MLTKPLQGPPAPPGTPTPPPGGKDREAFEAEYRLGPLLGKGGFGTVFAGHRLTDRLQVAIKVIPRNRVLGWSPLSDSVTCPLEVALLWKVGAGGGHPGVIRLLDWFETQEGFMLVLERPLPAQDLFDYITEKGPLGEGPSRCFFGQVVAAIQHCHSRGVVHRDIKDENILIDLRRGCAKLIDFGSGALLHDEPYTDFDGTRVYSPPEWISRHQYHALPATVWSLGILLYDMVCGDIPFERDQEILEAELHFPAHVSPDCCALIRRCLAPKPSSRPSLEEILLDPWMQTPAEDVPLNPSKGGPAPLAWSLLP
Chain of Serine/threonine-protein kinase 38 (Q15208 whole entry): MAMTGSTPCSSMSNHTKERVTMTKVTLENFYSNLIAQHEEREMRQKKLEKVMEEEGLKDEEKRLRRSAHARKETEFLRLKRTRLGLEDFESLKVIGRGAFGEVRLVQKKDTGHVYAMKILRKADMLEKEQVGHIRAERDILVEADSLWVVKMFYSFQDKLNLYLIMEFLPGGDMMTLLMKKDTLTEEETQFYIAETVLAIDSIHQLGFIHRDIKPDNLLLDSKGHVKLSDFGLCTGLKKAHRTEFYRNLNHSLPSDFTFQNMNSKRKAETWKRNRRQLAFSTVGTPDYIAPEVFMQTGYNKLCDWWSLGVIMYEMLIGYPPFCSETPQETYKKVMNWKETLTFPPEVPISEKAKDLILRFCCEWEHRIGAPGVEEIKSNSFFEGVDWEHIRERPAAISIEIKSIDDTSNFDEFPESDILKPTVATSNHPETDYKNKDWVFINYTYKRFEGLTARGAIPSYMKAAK
Chain of Uncharacterized aarF domain-containing protein kinase 5 (Q3MIX3 whole entry, the tested form may be a part): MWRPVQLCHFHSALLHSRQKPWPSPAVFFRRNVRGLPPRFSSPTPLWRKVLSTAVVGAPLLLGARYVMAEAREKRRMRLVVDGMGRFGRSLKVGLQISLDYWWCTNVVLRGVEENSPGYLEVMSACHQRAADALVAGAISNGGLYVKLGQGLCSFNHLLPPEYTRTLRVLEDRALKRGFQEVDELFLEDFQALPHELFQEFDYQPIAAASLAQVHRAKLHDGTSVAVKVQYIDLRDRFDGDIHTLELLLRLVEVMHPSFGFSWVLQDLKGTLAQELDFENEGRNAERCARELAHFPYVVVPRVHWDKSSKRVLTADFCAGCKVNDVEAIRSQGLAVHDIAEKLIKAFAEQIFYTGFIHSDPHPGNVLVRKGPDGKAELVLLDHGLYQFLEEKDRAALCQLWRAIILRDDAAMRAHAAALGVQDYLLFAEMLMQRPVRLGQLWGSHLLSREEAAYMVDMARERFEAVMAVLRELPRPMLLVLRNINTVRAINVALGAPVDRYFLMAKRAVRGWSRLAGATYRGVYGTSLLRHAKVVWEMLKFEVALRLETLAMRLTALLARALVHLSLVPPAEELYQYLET
Chain of Dual specificity protein kinase CLK4 (Q9HAZ1 whole entry): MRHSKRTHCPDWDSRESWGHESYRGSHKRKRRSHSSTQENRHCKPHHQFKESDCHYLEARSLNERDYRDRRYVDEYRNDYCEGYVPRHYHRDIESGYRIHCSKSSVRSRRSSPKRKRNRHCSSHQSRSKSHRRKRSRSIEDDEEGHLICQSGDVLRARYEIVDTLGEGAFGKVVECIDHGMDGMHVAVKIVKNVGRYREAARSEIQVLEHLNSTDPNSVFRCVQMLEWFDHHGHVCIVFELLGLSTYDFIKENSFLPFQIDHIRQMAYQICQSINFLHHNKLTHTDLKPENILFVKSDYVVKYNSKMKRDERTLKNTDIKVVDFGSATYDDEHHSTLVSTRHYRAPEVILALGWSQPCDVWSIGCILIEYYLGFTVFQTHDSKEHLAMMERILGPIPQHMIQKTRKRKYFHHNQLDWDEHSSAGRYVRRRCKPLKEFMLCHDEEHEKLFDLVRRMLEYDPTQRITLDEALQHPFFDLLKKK
Chain of Serine/threonine-protein kinase 38-like (Q9Y2H1 whole entry): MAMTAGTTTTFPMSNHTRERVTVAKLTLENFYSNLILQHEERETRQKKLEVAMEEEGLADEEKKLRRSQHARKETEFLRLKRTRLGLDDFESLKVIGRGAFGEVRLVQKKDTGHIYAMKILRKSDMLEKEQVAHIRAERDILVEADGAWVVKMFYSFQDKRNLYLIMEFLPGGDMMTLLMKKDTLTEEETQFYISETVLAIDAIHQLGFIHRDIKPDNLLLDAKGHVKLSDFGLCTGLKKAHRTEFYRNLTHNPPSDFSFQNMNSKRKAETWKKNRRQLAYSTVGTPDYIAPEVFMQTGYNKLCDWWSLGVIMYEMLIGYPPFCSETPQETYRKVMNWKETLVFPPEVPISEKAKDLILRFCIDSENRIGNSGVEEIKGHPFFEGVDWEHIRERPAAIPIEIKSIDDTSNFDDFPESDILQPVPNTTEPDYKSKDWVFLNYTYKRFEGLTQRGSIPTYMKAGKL
Chain of Cell division cycle 7-related protein kinase (O00311 whole entry): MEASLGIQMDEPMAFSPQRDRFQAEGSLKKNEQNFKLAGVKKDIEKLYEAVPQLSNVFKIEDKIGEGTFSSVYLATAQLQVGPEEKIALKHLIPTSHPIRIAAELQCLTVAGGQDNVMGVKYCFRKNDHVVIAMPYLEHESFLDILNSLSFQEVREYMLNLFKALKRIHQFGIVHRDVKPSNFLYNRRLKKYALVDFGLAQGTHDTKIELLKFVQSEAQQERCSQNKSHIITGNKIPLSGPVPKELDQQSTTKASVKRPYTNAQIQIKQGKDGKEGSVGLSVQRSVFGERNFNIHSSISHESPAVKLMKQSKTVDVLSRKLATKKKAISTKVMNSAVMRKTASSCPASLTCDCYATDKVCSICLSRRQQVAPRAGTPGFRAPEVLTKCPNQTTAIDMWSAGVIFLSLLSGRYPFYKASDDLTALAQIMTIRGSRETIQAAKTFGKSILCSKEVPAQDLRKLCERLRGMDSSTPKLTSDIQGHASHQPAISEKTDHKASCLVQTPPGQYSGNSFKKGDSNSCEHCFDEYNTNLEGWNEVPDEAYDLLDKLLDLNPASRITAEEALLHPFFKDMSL
Chain of Eukaryotic peptide chain release factor GTP-binding subunit ERF3B (Q8IYD1 whole entry): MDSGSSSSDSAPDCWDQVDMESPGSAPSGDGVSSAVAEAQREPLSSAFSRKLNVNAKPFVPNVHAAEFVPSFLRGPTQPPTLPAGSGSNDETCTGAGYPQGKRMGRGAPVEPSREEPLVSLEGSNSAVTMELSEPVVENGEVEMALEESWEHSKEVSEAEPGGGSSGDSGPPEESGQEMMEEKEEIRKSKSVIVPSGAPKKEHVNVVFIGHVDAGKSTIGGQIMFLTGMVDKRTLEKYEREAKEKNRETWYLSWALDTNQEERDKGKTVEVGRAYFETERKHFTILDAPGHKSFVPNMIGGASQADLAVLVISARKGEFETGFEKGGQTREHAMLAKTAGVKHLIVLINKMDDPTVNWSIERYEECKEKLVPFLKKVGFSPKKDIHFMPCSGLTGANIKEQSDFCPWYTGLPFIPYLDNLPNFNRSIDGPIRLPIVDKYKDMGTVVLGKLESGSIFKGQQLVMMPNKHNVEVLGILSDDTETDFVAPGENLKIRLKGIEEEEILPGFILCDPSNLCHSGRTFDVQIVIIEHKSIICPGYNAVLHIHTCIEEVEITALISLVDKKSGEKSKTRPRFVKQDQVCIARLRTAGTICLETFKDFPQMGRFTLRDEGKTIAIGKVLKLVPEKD

In the case of `C[C@@H](Oc1cc(C(=O)Nc2ccc(C(=O)N3CCN(C)CC3)cc2)nnc1N)c1c(Cl)ccc(F)c1Cl`, the Kd in assay [1] and in assay [2] was > 30 µM (inactive) throughout.
As for `C[C@H]1CNCCCN1S(=O)(=O)c1cccc2cncc(F)c12`, the Kd in [3] and in assay [4] was > 30 µM (inactive) throughout.
Turning to `CCNC(=O)C#Cc1ccc2c(c1)NC(=O)/C2=C(\Nc1ccc(CN(C)C)cc1)c1ccccc1`, the Kd was > 30 µM (inactive) in [5], > 30 µM (inactive) in [6], 0.02 µM (active) in assay [4] and 3.99 µM (active) in assay [2].
In the case of `C=CC(=O)N1CCC[C@H](n2c(=O)n(-c3ccc(Oc4ccccc4)cc3)c3c(N)ncnc32)C1`, the Kd in assay [7], in [1] and in assay [4] was > 30 µM (inactive) in each case.
Consider `Cc1nc(NC(=O)N2CCC[C@H]2C(N)=O)sc1-c1ccnc(C(C)(C)C(F)(F)F)c1` [ALPELISIB], for which the Kd in assay [7] and in assay [5] was > 30 µM (inactive) each time.
For the molecule `CNC(=O)c1ccccc1Sc1ccc2c(/C=C/c3ccccn3)n[nH]c2c1` [AXITINIB], the Kd in [3] and in assay [2] was > 30 µM (inactive) throughout.
As for `COc1cc([C@@H]2c3cc4c(cc3[C@H](O)[C@H]3COC(=O)[C@@H]23)OCO4)cc(OC)c1OC` [AXL-1717], the Kd in assay [8], in assay [6], in assay [1] and in assay [2] was > 30 µM (inactive) in each case.
For `COc1cc2ncnc(Oc3cccc(NC(=O)Nc4cc(C(C)(C)C(F)(F)F)on4)c3)c2cc1OC` [CEP-32496], the Kd in assay [8], in [7], in assay [6], in [1] and in [2] was > 30 µM (inactive) each time.
Take `CCS(=O)(=O)N1CCN(c2ccc(Nc3ncc(C(N)=O)c(NC4CC4)n3)cc2)CC1` [Cerdulatinib Hydrochloride]: the Kd in [7], in assay [5], in assay [9], in [1], in assay [4] and in assay [2] was > 30 µM (inactive) in each case.
For `Cn1cc(C2=C(c3cn(C4CCN(Cc5ccccn5)CC4)c4ccccc34)C(=O)NC2=O)c2ccccc21` [ENZASTAURIN], the Kd in [5] and in [2] was > 30 µM (inactive) throughout.
Consider `Cc1nc2cc(-n3ncc(C(=O)c4cc5ccccc5[nH]4)c3N)ccc2[nH]1` [FGFR INHIBITOR DEBIO 1347], for which the Kd in assay [1], in assay [4], in assay [2] and in [10] was > 30 µM (inactive) each time.
`C[C@@H](Oc1cc(-n2cnc3ccc(CN4CCN(C)CC4)cc32)sc1C(N)=O)c1ccccc1C(F)(F)F` [GSK-461364]: the Kd in assay [5] and in assay [9] was > 30 µM (inactive) each time.
In the case of `COc1ccc(S(=O)(=O)N(C(C)=O)c2ccccc2/C=C/c2cc[n+]([O-])cc2)cc1` [HMN-214], the Kd in [7], in assay [5], in assay [9], in [1], in assay [4] and in [2] was > 30 µM (inactive) in each case. The Kd in [10] was > 30 µM (inactive).
Consider `O=C(Nc1cc(C(F)(F)F)cc(C(F)(F)F)c1)c1cc(Cl)ccc1O` [IMD-0354], for which the Kd in assay [11], in [5], in assay [9], in assay [4] and in assay [2] was > 30 µM (inactive) in each case.
As to `CNC(=O)c1cccc2cc(Oc3ccnc4cc(OCC5(N)CC5)c(OC)cc34)ccc12` [LUCITANIB], the Kd in [5], in assay [1], in assay [4] and in [2] was > 30 µM (inactive) throughout.
`Cc1[nH]c(/C=C2\C(=O)Nc3ccccc32)c(C)c1CCC(=O)O` [ORANTINIB]: the Kd in assay [8], in assay [9], in [4] and in [10] was > 30 µM (inactive) throughout.
Take `NC(=O)c1c(OCc2c(F)cc(Br)cc2F)nsc1NC(=O)NCCCCN1CCCC1` [OSI-632]: the Kd in assay [11], in assay [5], in assay [9], in assay [6], in assay [4] and in [10] was > 30 µM (inactive) throughout.
Take `CCOc1cc2ncc(C#N)c(Nc3ccc(F)c(Cl)c3)c2cc1NC(=O)/C=C/CN(C)C` [PELITINIB]: the Kd in assay [11], in assay [8], in assay [9], in assay [6], in assay [1] and in [2] was > 30 µM (inactive) each time.
As to `CC(=O)NCC(=O)N1[C@@H]2CC[C@H]1c1ccc(Nc3ncc(C(F)(F)F)c(NC4CCC4)n3)cc12` [PF-03814735], the Kd in [11] was > 30 µM (inactive).
As for `Cc1cnc(NC(=O)Nc2cc(Br)c(C)cc2OC[C@@H]2CNCCO2)cn1` [RABUSERTIB], the Kd in assay [8], in assay [7], in assay [5], in assay [3], in assay [1] and in [4] was > 30 µM (inactive) each time. The Kd in assay [12] and in [2] was > 30 µM (inactive) each time.
On to `CNC(=O)c1cc(Oc2ccc(NC(=O)Nc3cc(C(C)(C)C)nn3-c3ccc4ncccc4c3)c(F)c2)ccn1` [REBASTINIB], for which the Kd in assay [7] was 2.53 µM; in assay [9], > 30 µM (inactive); in [1] it was > 30 µM (inactive); in [12], 4.46 µM (active).
Consider `O=C(NOCCO)c1cc(CN2OCCCC2=O)c(F)c(F)c1Nc1ccc(I)cc1F` [RO-4987655], for which the Kd in assay [5], in [9] and in [2] was > 30 µM (inactive) each time.
As for `N#CC[C@H](C1CCCC1)n1cc(-c2ncnc3[nH]ccc23)cn1` [RUXOLITINIB], the Kd in assay [3] and in assay [2] was > 30 µM (inactive) in each case.
Consider `Cn1cc(-c2cnn3c(N)c(Br)c([C@@H]4CCCNC4)nc23)cn1` [SCH-900776], for which the Kd in assay [7], in assay [6], in assay [4], in assay [2] and in [10] was > 30 µM (inactive) each time.
As to `CCS(=O)(=O)c1cccc(-c2cc(C(=O)NC3CCN(C)CC3)c(C)c3[nH]c4ncc(C)cc4c23)c1` [TAK-901], the Kd in [11], in assay [1] and in assay [2] was > 30 µM (inactive) each time.
`COc1cc2c(Nc3ccc(Cl)c(Cl)c3F)ncnc2cc1OC[C@@H]1C[C@@H]2CN(C)C[C@@H]2C1` [TESEVATINIB]: the Kd in assay [7], in assay [5], in [9] and in assay [4] was > 30 µM (inactive) throughout.
Regarding `O=C1NC(=O)[C@@H](c2cn3c4c(cccc24)CCC3)[C@@H]1c1c[nH]c2ccccc12` [TIVANTINIB], the Kd in assay [11], in assay [7], in assay [9] and in assay [1] was > 30 µM (inactive) in each case.
For `Cn1ncc(Cl)c1-c1cc(C(=O)N[C@H](CN)Cc2ccc(F)c(F)c2)oc1Cl` [UPROSERTIB], the Kd in [6] and in assay [1] was > 30 µM (inactive) throughout.
`CC(C)c1cc(CNc2nc(Nc3cc(C4CC4)[nH]n3)cc(N3CCN(C)CC3)n2)on1` [XL-228]: the Kd in assay [7], in assay [5], in [1] and in assay [4] was > 30 µM (inactive) in each case.
`CN1C/C=C/CCOc2cccc(c2)-c2ccnc(n2)Nc2cccc(c2)C1` [ZOTIRACICLIB]: the Kd in [5] and in assay [4] was > 30 µM (inactive) each time.
